Assay results taken from patent US8324132B2, “Mixture and method for controlling undesired vegetation” (E. I. du Pont de Nemours and Company, priority 2010, dated 2012).

Tests used:
Format in all cases: in vivo
[1] = test system: bermudagrass (Cynodon dactylon, CYNDA); assay: Test C field plots: bermudagrass phytotoxic response
Source text: (§1) In the following Tests C through E, Colby's equation was used to calculate the expected additive herbicidal effect of nicosulfuron and glyphosate alone and in combination. Colby's equation (S. R. Colby, “Calculating Synergistic and Antagonistic Responses of Herbicide Combinations,” Weeds, 15(1), pp 20-22 (1967)) calculates the expected additive effect of herbicidal mixtures, and for two active ingredients is of the form: Pa+b=Pa+Pb−(PaPb/100) • wherein Pa±b is the percentage effect of the mixture expected from additive contribution of the individual components, • Pa is the observed percentage effect of the first active ingredient at the same use rate as in the mixture, and • Pb is the observed percentage effect of the second active ingredient at the same use rate as in the mixture.
(§2) For mixtures comprising nicosulfuron, metsulfuron-methyl and glyphosate the expected herbicidal effect was calculated based on the combination of nicosulfuron and metsulfuron-methyl providing observed herbicidal effect Pa and glyphosate providing observed herbicidal effect Pb in the Colby Equation. Plant responses to components Pa and Pb range from zero to 100% where zero is no observed response and 100% is complete response (i.e. plant death). Mixtures of herbicides were tested for their ability to express synergism (enhanced weed control) or antagonism (improved tolerance) at several locations in the United States. In the following Tests glyphosate was provided by the potassium salt of glyphosate. Crop phytotoxic response (% phyto) and weed control efficacy (% control) were visually evaluated using a 0-100 scale where zero is no visible response and 100 is plant death. In the following Tables “DAA” means days after application and “g a.i./ha” means grams active ingredient per hectare.
(§3) Herbicides and herbicide mixtures were applied to field plots of bermudagrass (Cynodon dactylon, CYNDA) near De Leon, Tex., Yukon, Okla. and Burlington, Okla. to control field sandbur (Cenchrus incertus M. A. Curtis, CCHIN) approximately one week after the bermudagrass had been cut and harvested. All herbicides and herbicide mixtures were formulated in water containing 0.25% (vol/vol) non-ionic surfactant (“NIS” provided by INDUCE®) and applied as a spray mixture to bermudagrass stubble using a backpack sprayer pressurized with CO2.

[2] = test system: field sandbur (Cenchrus incertus M. A. Curtis, CCHIN); assay: Test C field plots: field sandbur control
Source text: as §1, §2, §3

[3] = test system: bermudagrass (Cynodon dactylon, CYNDA); assay: Test D field plots: bermudagrass phytotoxic response
Source text: as §1, §2
(§4) Herbicides and herbicide mixtures were applied to field plots of bermudagrass (Cynodon dactylon, CYNDA) near Lena, Miss. and Paris, Ark. to control knotroot foxtail (Setaria geniculata [Lam.] Beauv., SETGE) approximately one week after the bermudagrass had been cut and harvested. All herbicides and herbicide mixtures were formulated in water containing 0.25% (vol/vol) non-ionic surfactant (“NIS” provided by INDUCE®) and applied to bermudagrass stubble as a spray mixture using a backpack sprayer pressurized with CO2.

[4] = test system: knotroot foxtail (Setaria geniculata [Lam.] Beauv., SETGE); assay: Test D field plots: knotroot foxtail control
Source text: as §1, §2, §4

[5] = test system: dormant bermudagrass (Cynodon dactylon, CYNDA); assay: Test E field plots: dormant bermudagrass phytotoxic response
Source text: as §1, §2
(§5) Herbicides and herbicide mixtures were applied to field plots of dormant bermudagrass (Cynodon dactylon, CYNDA) near Eatonton, Ga. on Mar. 20, 2010 and Decatur, Tex. on Mar. 30, 2010 to control rescuegrass (Bromus catharticus Vahl., BROCA). All herbicides and herbicide mixtures were formulated in water containing 1.0% (vol/vol) crop oil concentrate and applied as a spray mixture to bermudagrass using a backpack sprayer pressurized with CO2.

[6] = test system: rescuegrass (Bromus catharticus Vahl., BROCA); assay: Test E field plots: rescuegrass control
Source text: as §1, §2, §5

[7] = glyphosate 96 g a.i./ha, 15 DAA, De Leon, TX
[8] = glyphosate 96 g a.i./ha, 30 DAA, Yukon, OK
[9] = glyphosate 96 g a.i./ha, 90 DAA, Yukon, OK and Burlington, OK
[10] = glyphosate 192 g a.i./ha, 15 DAA, De Leon, TX
[11] = glyphosate 192 g a.i./ha, 30 DAA, Yukon, OK
[12] = glyphosate 192 g a.i./ha, 90 DAA, Yukon, OK and Burlington, OK
[13] = glyphosate 289 g a.i./ha, 15 DAA, De Leon, TX
[14] = glyphosate 289 g a.i./ha, 30 DAA, Yukon, OK
[15] = glyphosate 289 g a.i./ha, 90 DAA, Yukon, OK and Burlington, OK
[16] = glyphosate 96 g a.i./ha, 30 DAA, Paris, AR
[17] = glyphosate 96 g a.i./ha, 60 DAA, Paris, AR
[18] = glyphosate 192 g a.i./ha, 15 DAA, Lena, MS
[19] = glyphosate 192 g a.i./ha, 30 DAA, Paris, AR
[20] = glyphosate 192 g a.i./ha, 60 DAA, Paris, AR
[21] = glyphosate 289 g a.i./ha, 15 DAA, Lena, MS
[22] = glyphosate 289 g a.i./ha, 30 DAA, Paris, AR
[23] = glyphosate 289 g a.i./ha, 60 DAA, Paris, AR
[24] = glyphosate 144 g a.i./ha, 30 DAA, Decatur, TX
[25] = glyphosate 144 g a.i./ha, 45 DAA, Eatonton, GA
[26] = glyphosate 144 g a.i./ha, 60 DAA, Decatur, TX
[27] = glyphosate 289 g a.i./ha, 30 DAA, Decatur, TX
[28] = glyphosate 289 g a.i./ha, 45 DAA, Eatonton, GA
[29] = glyphosate 289 g a.i./ha, 60 DAA, Decatur, TX
[30] = nicosulfuron 39 g a.i./ha, 15 DAA, De Leon, TX
[31] = nicosulfuron 39 g a.i./ha, 30 DAA, Yukon, OK
[32] = nicosulfuron 39 g a.i./ha, 90 DAA, Yukon, OK and Burlington, OK
[33] = nicosulfuron 39 g a.i./ha, 30 DAA, Paris, AR
[34] = nicosulfuron 39 g a.i./ha, 60 DAA, Paris, AR
[35] = nicosulfuron 39 g a.i./ha, 30 DAA, Decatur, TX
[36] = nicosulfuron 39 g a.i./ha, 45 DAA, Eatonton, GA
[37] = nicosulfuron 39 g a.i./ha, 60 DAA, Decatur, TX

O=C(O)CNCP(=O)(O)O [Glyphosate, glyphosate]
CYNDA (% phyto) Observed [1, 7]: 0%
CYNDA (% phyto) Observed [1, 8]: 0%
CYNDA (% phyto) Observed [1, 9]: 0%
CYNDA (% phyto) Observed [1, 10]: 5%
CYNDA (% phyto) Observed [1, 11]: 0%
CYNDA (% phyto) Observed [1, 12]: 0%
CYNDA (% phyto) Observed [1, 13]: 13%
CYNDA (% phyto) Observed [1, 14]: 0%
CYNDA (% phyto) Observed [1, 15]: 0%
CCHIN (% control) Observed [2, 7]: 60%
CCHIN (% control) Observed [2, 8]: 2%
CCHIN (% control) Observed [2, 9]: 55%
CCHIN (% control) Observed [2, 10]: 74%
CCHIN (% control) Observed [2, 11]: 18%
CCHIN (% control) Observed [2, 12]: 63%
CCHIN (% control) Observed [2, 13]: 89%
CCHIN (% control) Observed [2, 14]: 35%
CCHIN (% control) Observed [2, 15]: 75%
CYNDA (% phyto) Observed [3, 16]: 0%
CYNDA (% phyto) Observed [3, 17]: 0%
CYNDA (% phyto) Observed [3, 18]: 18%
CYNDA (% phyto) Observed [3, 19]: 2%
CYNDA (% phyto) Observed [3, 20]: 0%
CYNDA (% phyto) Observed [3, 21]: 20%
CYNDA (% phyto) Observed [3, 22]: 11%
CYNDA (% phyto) Observed [3, 23]: 0%
SETGE (% control) Observed [4, 16]: 7%
SETGE (% control) Observed [4, 17]: 3%
SETGE (% control) Observed [4, 18]: 79%
SETGE (% control) Observed [4, 19]: 28%
SETGE (% control) Observed [4, 20]: 18%
SETGE (% control) Observed [4, 21]: 84%
SETGE (% control) Observed [4, 22]: 40%
SETGE (% control) Observed [4, 23]: 20%
CYNDA (% phyto) Observed [5, 24]: 0%
CYNDA (% phyto) Observed [5, 25]: 0%
CYNDA (% phyto) Observed [5, 26]: 0%
CYNDA (% phyto) Observed [5, 27]: 0%
CYNDA (% phyto) Observed [5, 28]: 0%
CYNDA (% phyto) Observed [5, 29]: 0%
BROCA (% control) Observed ([6]; glyphosate 144 g a.i./ha, 15 DAA, Eatonton, GA): 0%
BROCA (% control) Observed [6, 24]: 0%
BROCA (% control) Observed [6, 25]: 88%
BROCA (% control) Observed [6, 26]: 0%
BROCA (% control) Observed ([6]; glyphosate 289 g a.i./ha, 15 DAA, Eatonton, GA): 87%
BROCA (% control) Observed [6, 27]: 0%
BROCA (% control) Observed [6, 28]: 95%
BROCA (% control) Observed [6, 29]: 0%

COc1cc(OC)nc(NC(=O)NS(=O)(=O)c2ncccc2C(=O)N(C)C)n1 [Nicosulfuron, nicosulfuron]
CYNDA (% phyto) Observed [1, 30]: 5%
CYNDA (% phyto) Observed [1, 31]: 10%
CYNDA (% phyto) Observed [1, 32]: 0%
CCHIN (% control) Observed [2, 30]: 65%
CCHIN (% control) Observed [2, 31]: 78%
CCHIN (% control) Observed [2, 32]: 88%
CYNDA (% phyto) Observed [3, 33]: 3%
CYNDA (% phyto) Observed [3, 34]: 0%
SETGE (% control) Observed [4, 33]: 28%
SETGE (% control) Observed [4, 34]: 10%
CYNDA (% phyto) Observed [5, 35]: 0%
CYNDA (% phyto) Observed [5, 36]: 0%
CYNDA (% phyto) Observed [5, 37]: 0%
BROCA (% control) Observed ([6]; nicosulfuron 39 g a.i./ha, 15 DAA, Eatonton, GA): 10%
BROCA (% control) Observed [6, 35]: 63%
BROCA (% control) Observed [6, 36]: 79%
BROCA (% control) Observed [6, 37]: 53%
